Legend:
[1] = target: Prostaglandin E2 receptor EP2 subtype (Homo sapiens) (UniProt P43116); assay: The percentage decrease in the binding of [3H]PGE2, in the presence of 1000 uM of compound
[2] = target: Prostaglandin E2 receptor EP2 subtype (Homo sapiens) (UniProt P43116); assay: The percentage decrease in the binding of [3H]PGE2, in the presence of 125 uM of compound

Prostaglandin E2 receptor EP2 subtype (Homo sapiens), sequence (P43116 whole entry): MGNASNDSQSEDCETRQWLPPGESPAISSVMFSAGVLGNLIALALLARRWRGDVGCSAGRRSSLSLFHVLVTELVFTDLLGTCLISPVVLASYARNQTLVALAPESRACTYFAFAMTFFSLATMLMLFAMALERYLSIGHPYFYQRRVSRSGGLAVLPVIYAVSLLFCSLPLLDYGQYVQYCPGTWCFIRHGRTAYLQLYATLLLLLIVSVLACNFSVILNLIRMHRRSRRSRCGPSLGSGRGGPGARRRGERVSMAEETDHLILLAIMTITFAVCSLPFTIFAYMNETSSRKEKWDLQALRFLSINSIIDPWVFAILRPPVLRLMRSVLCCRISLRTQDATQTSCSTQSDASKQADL

| SMILES | Decrease [1] [%] | Decrease [2] [%] |
| --- | --- | --- |
| O=C1C[C@H](O)[C@H](CO)O1 | 73 |  |
| O=C1C[C@H](O)[C@@H](CO)O1 | 33 | 78 |

Reference: ChEMBL document CHEMBL1138833, “Enantioselective synthesis and biological activity of (3S,4R)- and (3S,4S)-3-hydroxy-4-hydroxymethyl- 4-butanolides in relation to PGE2” (J Med Chem, 2004)
